Assay: Electrophysiological data on Xenopus oocytes, expressing homomeric kainate receptor (GluR5)

Structure (SMILES): CC(C)(C)c1s[nH]c(=O)c1C[C@H](N)C(=O)O [2-Amino-3-(5-tert-butyl-3-hydroxy-isothiazol-4-yl)-propionic acid]
- EC50: 100 nM
